30 compounds from patent publication US20050004038A1, “Bivalent inhibitors of Glutathione-S-Transferases” (priority 2003, published 2005) can be followed below.

SMILES strings stand for the structures. Where “and” joins values, the source holds several entries; their conditions need not be identical. Equal values may be shown once.

The target of test [1] is T1, human glutathione S-transferase A1-1 (GSTA1-1) (Homo sapiens, UniProt P08263).
T1 construct: made in house; host or cells: E. coli
T1 sequence (P08263 1-222): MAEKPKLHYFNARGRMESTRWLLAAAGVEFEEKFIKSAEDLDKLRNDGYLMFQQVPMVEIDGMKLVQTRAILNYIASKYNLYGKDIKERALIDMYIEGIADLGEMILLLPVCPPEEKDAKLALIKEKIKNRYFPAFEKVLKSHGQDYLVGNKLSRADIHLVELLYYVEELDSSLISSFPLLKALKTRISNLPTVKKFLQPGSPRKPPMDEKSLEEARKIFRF
Put plainly: CDNB assay of GST activity and inhibition, GST A1-1. Conditions: second value of the cell GSTP1-1/GSTA1-1, 20 nM GST. Type of test: biochemical. As to the method:
(§1) GST isozymes. […] The enzyme was incubated with 10 mM dithiothreitol to ensure complete reduction of cysteine residues, followed by extensive dialysis to remove the reducing agent. […] Plasmodium GST (pGST) was a gift from Dr. Katja Becker (Justus Liebig University of Giessen), and murine GSTP and GSTA were gifts from Dr. Dave Eaton (University of Washington). Except where otherwise stated (i.e. testing of pGST in Example 6.4.5 and testing of murine GSTs in Example 6.4.7), GST isozymes tested were from human.
(§2) GST assays. Assays of GST activity and inhibition were performed with chloro-2,4-dinitrobenzene (CDNB) as the electrophilic substrate. Except where otherwise stated, GST concentration was 20 nM. […] Rates were determined by measuring absorption at 340 nm (λmax of glutathione-dinitrobenzene) for 1 minute on a Beckman DU 7400 spectrophotometer. For IC50 determinations, assays were performed at inhibitor concentrations ranging over at least […] (from 100-fold above the IC50 to 100-fold below). Data were fit to a sigmoidal dose-response function using GraphPad Prism to determine the 50% inhibitory concentration.

Test [2] addresses T2, human glutathione S-transferase P1-1 (GSTP1-1) (Homo sapiens, UniProt P09211).
T2 construct: made in house; host or cells: E. coli
Put plainly: CDNB assay of GST activity and inhibition, GST P1-1. Conditions: for IC50: first value of the cell GSTP1-1/GSTA1-1, CDNB assay, 20 nM GST; for fold greater affinity for GSTP1-1 (lower IC50) than the ligand domain alone: versus corresponding ligand domain (GS-NB/IId, IIg, IIId, IVk). Type of test: biochemical. The method, then:
as §1, §2

T2 sequence (P09211 2-210 limits assumed): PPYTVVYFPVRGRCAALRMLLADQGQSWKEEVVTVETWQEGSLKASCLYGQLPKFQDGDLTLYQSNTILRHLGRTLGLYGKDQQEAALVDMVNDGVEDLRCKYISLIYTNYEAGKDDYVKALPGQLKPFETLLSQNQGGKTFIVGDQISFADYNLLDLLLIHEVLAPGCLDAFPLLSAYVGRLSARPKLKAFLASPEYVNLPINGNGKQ

The term IC50 denotes the point on the concentration scale where inhibition reaches its midpoint. A higher IC50 goes with weaker potency. Turning to `NC(=O)c1cc(CNC(=O)CCCNC(=O)CSCC(NC(=O)CCC(N)C(=O)O)C(=O)NCC(=O)O)cc(CNC(=O)CCCNC(=O)CSCC(NC(=O)CCC(N)C(=O)O)C(=O)NCC(=O)O)c1` (centres unmarked) [Ig], the values for the IC50 in test [1] and in test [2] were above 10000 nM and 24800 nM, respectively.
The like results for `NC(CCC(=O)NC(CSCCCCCCCCCCCOC(=O)CCCCCCCSCC(NC(=O)CCC(N)C(=O)O)C(=O)NCC(=O)O)C(=O)NCC(=O)O)C(=O)O` (centres unmarked) [Id] were, in that order, 110 nM and 200 nM.
The like results for `Nc1c(S(=O)(=O)O)cc(Nc2cccc(S(=O)(=O)CCNCCOCCOCCOCCNCCS(=O)(=O)c3cccc(Nc4cc(S(=O)(=O)O)c(N)c5c4C(=O)c4ccccc4C5=O)c3)c2)c2c1C(=O)c1ccccc1C2=O` [IIIb] were, in that order, above 100000 nM and 72 nM.
The like results for `NC(CCC(=O)NC(CSc1ccc(C(=O)OCCOC(=O)c2cccc(C(=O)OCCOC(=O)c3ccc(SCC(NC(=O)CCC(N)C(=O)O)C(=O)NCC(=O)O)c([N+](=O)[O-])c3)c2)cc1[N+](=O)[O-])C(=O)NCC(=O)O)C(=O)O` (centres unmarked) [IIb] were, in that order, 1600 nM and 2900 nM.
With `NC(=O)c1cccc(CNC(=O)CCCNCCS(=O)(=O)c2cccc(Nc3cc(S(=O)(=O)O)c(N)c4c3C(=O)c3ccccc3C4=O)c2)c1` [IIIl*, reference compound], the results for the IC50 in test [1] and in test [2] were above 20000 nM and 854 nM, respectively. Further, the “fold greater affinity for GSTP1-1 (lower IC50) than the ligand domain alone” value in test [2] is listed as “approximately 6 fold”.
For the compound `C=C(CC)C(=O)c1ccc(OCC(=O)NCCCC(=O)NCc2cc(CNC(=O)CCCNC(=O)COc3ccc(C(=O)C(=C)CC)c(Cl)c3Cl)cc(C(N)=O)c2)c(Cl)c1Cl` [IVf], the IC50 in test [1] was 14 nM; in test [2] it was 589 nM.
Turning to `NC(CCC(=O)NC(CSCCCCCCCCCCOC(=O)CCCCCCCSCC(NC(=O)CCC(N)C(=O)O)C(=O)NCC(=O)O)C(=O)NCC(=O)O)C(=O)O` (centres unmarked) [Ic], the figures for the IC50 in test [1] and in test [2] were 160 nM and 80 nM, respectively.
Consider `CCNCCS(=O)(=O)c1cccc(Nc2cc(S(=O)(=O)O)c(N)c3c2C(=O)c2ccccc2C3=O)c1` [IIId*, reference compound], for which the IC50 in test [1] is above 100000 nM; in test [2], 5000 nM.
For `NC(=O)c1cc(CNC(=O)CCCCCCCNCCS(=O)(=O)c2cccc(Nc3cc(S(=O)(=O)O)c(N)c4c3C(=O)c3ccccc3C4=O)c2)cc(CNC(=O)CCCCCCCNCCS(=O)(=O)c2cccc(Nc3cc(S(=O)(=O)O)c(N)c4c3C(=O)c3ccccc3C4=O)c2)c1` [IIIj] the same measures were above 220 nM and 267 nM.
The like results for `NC(=O)c1cc(CNC(=O)CCCCCNCCS(=O)(=O)c2cccc(Nc3cc(S(=O)(=O)O)c(N)c4c3C(=O)c3ccccc3C4=O)c2)cc(CNC(=O)CCCCCNCCS(=O)(=O)c2cccc(Nc3cc(S(=O)(=O)O)c(N)c4c3C(=O)c3ccccc3C4=O)c2)c1` [IIIi] were, in that order, above 1000 nM and 203 nM.
The like results for `NC(=O)c1cccc(CNC(=O)CCCC(=O)NCSCC(NC(=O)CCC(N)C(=O)O)C(=O)NCC(=O)O)c1` (centres unmarked) [Ih*, reference compound] were, in that order, above 10000 nM and 39300 nM.
Consider `NC(=O)c1cc(CNCCS(=O)(=O)c2cccc(Nc3cc(S(=O)(=O)O)c(N)c4c3C(=O)c3ccccc3C4=O)c2)cc(CNCCS(=O)(=O)c2cccc(Nc3cc(S(=O)(=O)O)c(N)c4c3C(=O)c3ccccc3C4=O)c2)c1` [IIIe], for which the IC50 in test [1] is above 10000 nM; in test [2] it was 557 nM.
In the case of `CCOC(=O)c1ccc(SCC(NC(=O)CCC(N)C(=O)O)C(=O)NCC(=O)O)c([N+](=O)[O-])c1` (centres unmarked) [IId*, reference compound], the IC50 in test [1] amounted to 30000 nM; in test [2], 21000 nM. The “isozyme specificity GSTP1-1 versus GSTA1-1” value in test [2] (in words) is given as “no substantial isozyme specificity”.
Take `COC(=O)CCCCCCCSCC(NC(=O)CCC(N)C(=O)O)C(=O)NCC(=O)O` (centres unmarked) [If*, reference compound]: the concentration for half-maximal inhibition (IC50) in test [1] and in test [2] was 3800 nM in each case.
Take `CCC(CSCC(NC(=O)CCC(N)C(=O)O)C(=O)NCC(=O)O)C(=O)c1ccc(OCC(=O)NCCCC(=O)NCc2cccc(C(N)=O)c2)c(Cl)c1Cl` (centres unmarked) [IIf*, reference compound]: the IC50 in test [1] is 5830 nM; in test [2] it was 1500 nM.
Regarding `NC(CCC(=O)NC(CSCCCCCCCCCOC(=O)CCCCCCCSCC(NC(=O)CCC(N)C(=O)O)C(=O)NCC(=O)O)C(=O)NCC(=O)O)C(=O)O` (centres unmarked) [Ib], the figures for the IC50 in test [1] and in test [2] were 340 nM and 300 nM, respectively.
The like results for `C=C(CC)C(=O)c1ccc(OCC(=O)Nc2ccc(NC(=O)COc3ccc(C(=O)C(=C)CC)c(Cl)c3Cl)cc2)c(Cl)c1Cl` [IVb, Bis-1,4-ethacrynyl-phenylenediamine] were, in that order, 1310 nM and above 10000 nM.
The like results for `NC(=O)c1cc(CNC(=O)CNCCS(=O)(=O)c2cccc(Nc3cc(S(=O)(=O)O)c(N)c4c3C(=O)c3ccccc3C4=O)c2)cc(CNC(=O)CNCCS(=O)(=O)c2cccc(Nc3cc(S(=O)(=O)O)c(N)c4c3C(=O)c3ccccc3C4=O)c2)c1` [IIIf] were, in that order, above 1000 nM and 437 nM.
Consider `Nc1c(S(=O)(=O)O)cc(Nc2cccc(S(=O)(=O)CCNCCCNC(=O)c3cccc(C(=O)NCCCNCCS(=O)(=O)c4cccc(Nc5cc(S(=O)(=O)O)c(N)c6c5C(=O)c5ccccc5C6=O)c4)c3)c2)c2c1C(=O)c1ccccc1C2=O` [IIIc], for which the IC50 was above 100000 nM in test [1] and 440 nM in test [2].
For the compound `C=C(CC)C(=O)c1ccc(OCC(=O)NCCC(=O)NCc2cc(CNC(=O)CCNC(=O)COc3ccc(C(=O)C(=C)CC)c(Cl)c3Cl)cc(C(N)=O)c2)c(Cl)c1Cl` [IVe], the IC50 in test [1] is 12 nM and 12.3 nM; in test [2] it was 1200 nM.
For the compound `C=C(CC)C(=O)c1ccc(OCC(=O)NCc2cc(CNC(=O)COc3ccc(C(=O)C(=C)CC)c(Cl)c3Cl)cc(C(N)=O)c2)c(Cl)c1Cl` [IVc], the IC50 in test [1] came out at 29.7 nM; in test [2], 992 nM.
Turning to `CCC(CSCC(NC(=O)CCC(N)C(=O)O)C(=O)NCC(=O)O)C(=O)c1ccc(OCC(=O)NCCCC(=O)NCc2cc(CNC(=O)CCCNC(=O)COc3ccc(C(=O)C(CC)CSCC(NC(=O)CCC(N)C(=O)O)C(=O)NCC(=O)O)c(Cl)c3Cl)cc(C(N)=O)c2)c(Cl)c1Cl` (centres unmarked) [IIe], the half-inhibitory concentration (IC50) in test [1] turned out to be 3.8 nM. In test [2], it took 353 nM to reach half-maximal inhibition (IC50) and the “fold greater affinity for GSTP1-1 (lower IC50) than the ligand domain alone” value is on record as 30 fold.
Turning to `NC(CCC(=O)NC(CSc1ccc(C(=O)OCCOCCOCCOCCOC(=O)c2ccc(SCC(NC(=O)CCC(N)C(=O)O)C(=O)NCC(=O)O)c([N+](=O)[O-])c2)cc1[N+](=O)[O-])C(=O)NCC(=O)O)C(=O)O` (centres unmarked) [IIa], the IC50 in test [1] turned out to be 29000 nM; in test [2] it was 4500 nM.
For `C=C(CC)C(=O)c1ccc(OCC(=O)Nc2cccc(NC(=O)COc3ccc(C(=O)C(=C)CC)c(Cl)c3Cl)c2)c(Cl)c1Cl` [IVa, Bis-1,3-ethacrynyl-phenylenediamine] the same measures were 741 nM and above 10000 nM.
For `NC(CCC(=O)NC(CSCCCCCCCCOC(=O)CCCCCCCSCC(NC(=O)CCC(N)C(=O)O)C(=O)NCC(=O)O)C(=O)NCC(=O)O)C(=O)O` (centres unmarked) [Ia] the same measures were 200 nM and 360 nM.
The like results for `NC(CCC(=O)NC(CSc1ccc(C(=O)OCCCOC(=O)c2cccc(C(=O)OCCCOC(=O)c3ccc(SCC(NC(=O)CCC(N)C(=O)O)C(=O)NCC(=O)O)c([N+](=O)[O-])c3)c2)cc1[N+](=O)[O-])C(=O)NCC(=O)O)C(=O)O` (centres unmarked) [IIc] were, in that order, 3300 nM and 280 nM.
Turning to `Nc1c(S(=O)(=O)O)cc(Nc2cccc(S(=O)(=O)CCNCCOCCOCCNCCS(=O)(=O)c3cccc(Nc4cc(S(=O)(=O)O)c(N)c5c4C(=O)c4ccccc4C5=O)c3)c2)c2c1C(=O)c1ccccc1C2=O` [IIIa], the IC50 is above 100000 nM in test [1] and 44 nM in test [2].
In test [1], `C=C(CC)C(=O)c1ccc(OCC(=O)NCCCCCCCC(=O)NCc2cc(CNC(=O)CCCCCCCNC(=O)COc3ccc(C(=O)C(=C)CC)c(Cl)c3Cl)cc(C(N)=O)c2)c(Cl)c1Cl` [IVh] came in with an IC50 of 54 nM. For the same compound, in test [2], the IC50 came out at 31 nM and the “fold greater affinity for GSTP1-1 (lower IC50) than the ligand domain alone” value was “approximately 129 fold”. The “fold lower IC50 for GSTP1-1 than the monovalent inhibitor” value in test [2] (versus IVj) came to 403 fold.
Turning to `NC(CCC(=O)NC(CSCCCCCCCCCCCCOC(=O)CCCCCCCSCC(NC(=O)CCC(N)C(=O)O)C(=O)NCC(=O)O)C(=O)NCC(=O)O)C(=O)O` (centres unmarked) [Ie], the IC50 turned out to be 140 nM in test [1] and 190 nM in test [2].
For `NC(=O)c1cc(CNC(=O)CCNCCS(=O)(=O)c2cccc(Nc3cc(S(=O)(=O)O)c(N)c4c3C(=O)c3ccccc3C4=O)c2)cc(CNC(=O)CCNCCS(=O)(=O)c2cccc(Nc3cc(S(=O)(=O)O)c(N)c4c3C(=O)c3ccccc3C4=O)c2)c1` [IIIg] the same measures were 2500 nM and 162 nM.
